Source: patent US20220000117A1, “METHOD FOR CONTROLLING DISEASES IN SMALL GRAIN CEREALS, SEED OF SMALL GRAIN CEREALS, AND METHOD FOR SUPPRESSING LODGING DAMAGE IN SMALL GRAIN CEREALS” (KUMIAI CHEMICAL INDUSTRY CO., LTD., priority 2019, published 2022)

Legend:
[1] = test system: powdery mildew; assay: Test Example 1: control test of wheat powdery mildew, field, wheat variety Haruyutaka; assay type: in vivo, Blumeria graminis; conditions: Foliage Treatment, flag leaves, 79 days after seeding
Procedure: Seed of wheat (variety: Haruyutaka) sterilized in advance with commercial Benlate T wettable powder 20 (“Benlate” is a registered trademark) was used. In Example 1, seed having a mass of 1 kg was mixed into 100 ml of suspension water containing 5 g of dichlobentiazox, air-dried, and then, stripe-sown in a field with a furrow width of 30 cm and a ratio of 163 kg/ha (417 seeds/m^2). In contrast, in Comparative Example 1, seed which had not treated with dichlobentiazox was sown in a field in the same manner, and a spray solution corresponding to that obtained by suspending 500 g of dichlobentiazox in 200 liters of water per 1 ha was sprayed on foliage of wheat three times, during an ear emergence period (63 days after seeding), a flowering period (70 days after seeding), and a flowering end period (77 days after seeding). Similarly, in place of 500 g of dichlobentiazox in Comparative Example 1, 250 g of azoxystrobin (commercial Amistar 20 flowable was used. “Amistar” is a registered trademark) was used in Comparative Example 2, and 125 g of propiconazole (commercial Tilt emulsifiable concentrate 25 was used, “Tilt” is a registered trademark) was used in Comparative Example 3. The presence or absence of disease occurrence and a lesion area ratio of powdery mildew in flag leaves of 30 stems were investigated 79 days after seeding according to the criteria in Table 1, and a disease leaf rate and the degree of disease occurrence were calculated by the following calculation formula (1).
(§1) Degree of Disease Occurrence=Σ(Index×Number of Leaves of Index)/(4×Number of Investigated Leaves)×100 (1)

[2] = test system: septoria leaf blotch; assay: Test Example 7: control test of septoria leaf blotch of wheat, field, wheat variety TRAPEZ; assay type: in vivo, Septoria tritici; conditions: for Degree of Disease Occurrence: flag leaves, 219 days after seeding
Procedure: as §1
Seed of wheat (variety: TRAPEZ) was used. On seed having a mass of 1 kg, 20 ml of suspension water containing 0.5 g or 5 g of dichlobentiazox or isotianil was sprayed. In Examples 16, 17, and 18, the seed treated with the chemical was stripe-sown with a ratio of 100 kg/ha. In contrast, in Comparative Example 17, seed which had not treated with dichlobentiazox or isotianil was sown in a field in the same manner, and a spray solution corresponding to that obtained by suspending 750 g of chlomthalonil (commercial FUNGISTOP was used, “FUNGISTOP” is a registered trademark) in 200 liters of water per 1 ha was sprayed on foliage of wheat 154 days and 184 days after seeding. The severity of disease occurrence of septoria leaf blotch in flag leaves of 25 stems was investigated 219 days after seeding according to the criteria in Table 1, and the degree of disease occurrence was calculated by the above calculation formula (1).

[3] = test system: powdery mildew; assay: Test Example 3: control test of wheat powdery mildew, cup in greenhouse, inoculated; assay type: in vivo, Blumeria graminis; set-up: key to Degree of Disease Occurrence: Σ(index×no. leaves of index)/(4×no. investigated leaves)×100; conditions: for Degree of Disease Occurrence: 19 days after seeding
Procedure: as §1
(§2) Seed having a mass of 1 kg of wheat (variety: Norin No. 61) was mixed into 100 ml of suspension water containing 5 g or 0.5 g of dichlobentiazox or isotianil and air-dried, and then, 12 seeds were sown in a plastic cup having a diameter of 6 cm containing river sand and managed in a greenhouse. The number of emerged seeds was investigated nine days after seeding, and an emergence rate was calculated (Examples 6 to 9). In Comparative Examples 6 to 9, 20 ml of suspension water of an active ingredient, which had been adjusted to have a concentration shown in Table 4, was sprayed in a frame of 45 cm×45 cm in which a pot of wheat seedlings was placed (corresponding to 1000 L/ha) 14 days after seeding. On day 14 after seeding, conidiospores of powdery mildew were sifted over leaves of wheat seedlings and inoculated onto the leaves (after the sprayed liquid was dried in the case of Comparative Examples), a lesion area ratio of powdery mildew in a first leaf was investigated 19 days after seeding according to the criteria in Table 1, and the degree of disease occurrence was calculated by the above calculation formula (1).

[4] = test system: powdery mildew; assay: Test Example 5: control test of wheat powdery mildew, field, wheat variety Haruyutaka; assay type: in vivo, Blumeria graminis; conditions: for Degree of Disease Occurrence / Disease Leaf Rate (%): Seed Treatment 2.5 g/Seed 1 kg (250 g/ha), leaves just below flag leaves, 85 days after seeding
Procedure: as §1
Seed of wheat (variety: Haruyutaka) sterilized in advance with commercial Benlate T wettable powder 20 (“Benlate” is a registered trademark) was used. In Examples 12, 13, and 14, seed having a mass of 1 kg was mixed into 50 ml of suspension water containing 2.5 g or 1.25 g of dichlobentiazox or 50 ml of suspension water containing 2.5 g of isotianil, air-dried, and then, stripe-sown in a field with a furrow width of 30 cm and a ratio of 100 kg/ha (300 seeds/m^2). Moreover, in Comparative Example 14, seed having a mass of 1 kg was mixed into 50 ml of suspension water containing 2.5 g of tiadinil (commercial V-GET flowable was used, “V-GET” is a registered trademark), air-dried, and then, stripe-sown in a field with a furrow width of 30 cm and a ratio of 100 kg/ha (300 seeds/m^2). The presence or absence of disease occurrence and a lesion area ratio of powdery mildew in leaves just below hag leaves (next leaves) of 30 stems were investigated 85 days after seeding by according to the criteria in Table 1, and a disease leaf rate and the degree of disease occurrence were calculated by the above calculation formula(1).

[5] = test system: wheat (variety: Norin No. 61); assay: Test Example 2: emergence rate of treated wheat seed; assay type: in vivo; conditions: 10 days after seeding
Procedure: (§3) Seed having a mass of 1 kg of wheat (variety: Norin No. 61) was mixed into 100 ml of suspension water containing 5 g or 0.5 g of dichlobentiazox or isotianil (commercial Routine flowable was used, “Routine” is a registered trademark) and air-dried, and then, 15 seeds were sown in a plastic pot of 9 cm×9 cm containing horticultural soil and managed in a greenhouse. The number of emerged seeds was investigated 10 days after seeding, and an emergence rate was calculated (Examples 2 to 5). On day 49 after seeding, conidiospores of powdery mildew were sifted over leaves of wheat seedlings and inoculated onto the leaves, a lesion area ratio of powdery mildew in a first leaf was investigated 59 days after seeding according to the criteria in Table 1, and the degree of disease occurrence was calculated by the above calculation formula (1).

[6] = test system: wheat (variety: Norin No. 61); assay: Test Example 3: emergence rate of wheat seed; assay type: in vivo
Procedure: as §2

[7] = test system: powdery mildew; assay: Test Example 2: control test of wheat powdery mildew, pot in greenhouse, inoculated, wheat variety Norin No. 61; assay type: in vivo, Blumeria graminis; conditions: for Degree of Disease Occurrence: inoculated day 49, first leaf, 59 days after seeding
Procedure: as §1, §3

[8] = test system: wheat (variety: Haruyutaka); assay: Test Example 6: evaluation test of shortening of wheat (culm length, seed yield), field; assay type: in vivo; conditions: Propiconazole foliage spray 125 g/ha three times only, no seed treatment
[9] = Seed Treatment 0.5 g/Seed 1 kg (50 g/ha)
[10] = Seed Treatment 5 g/Seed 1 kg (500 g/ha)

With `CO/C=C(/C(=O)OC)c1ccccc1Oc1cc(Oc2ccccc2C#N)ncn1` [Azoxystrobin, azoxystrobin, reference compound] the “Degree of Disease Occurrence” value ([1]; spray 250 g/ha three times) was 17.6 and the “Disease Leaf Rate (%)” value ([1]; spray 250 g/ha three times) was 90.0%.
In the case of `N#Cc1c(Cl)c(Cl)c(Cl)c(C#N)c1Cl` [Chlorothalonil, chlorothalonil, reference compound], the “Degree of Disease Occurrence” value ([2]; Foliage Treatment, spray 750 g/ha two times (154 and 184 days after seeding)) is reported as 3.1.
For `N#Cc1ccccc1NC(=O)c1snc(Cl)c1Cl` [Compound (10), Isotianil], the “Degree of Disease Occurrence” value ([3]; Foliage Treatment, spray 50 ppm suspension water (50 g/ha) day 14, first leaf) was 47.2, the “Degree of Disease Occurrence” value ([3]; Foliage Treatment, spray 500 ppm suspension water (500 g/ha) day 14, first leaf) was 27.8 and the “Degree of Disease Occurrence” value ([3]; Seed Treatment 0.5 g/Seed 1 kg (50 g/ha), inoculated day 14, first leaf) was 23.5. For the same molecule, the “Degree of Disease Occurrence” value ([3]; Seed Treatment 5 g/Seed 1 kg (500 g/ha), inoculated day 14, first leaf) was 4.4, the “disease occurrence of powdery mildew, seed treatment compared with spraying on foliage during a growing period” value ([3]; seed treatment) was “suppressed lower” and the “Degree of Disease Occurrence” value [4] was 1.0. For the same molecule, the “Disease Leaf Rate (%)” value [4] was 4.4%, the “disease occurrence of powdery mildew, seed treatment compared with seed treatment with tiadinil” value ([4]; seed treatment) was “suppresses the disease occurrence of powdery mildew lower” and the “Emergence Rate (%)” value [5, 9] was 96%. The “Emergence Rate (%)” value [5, 10] was 100%, the “Emergence Rate (%)” value ([6]; Foliage Treatment group, spray 50 ppm (50 g/ha) 14 days after seeding, emergence counted nine days after seeding) was 97% and the “Emergence Rate (%)” value ([6]; Foliage Treatment group, spray 500 ppm (500 g/ha) 14 days after seeding, emergence counted nine days after seeding) was 100%. The “Emergence Rate (%)” value ([6]; Seed Treatment 0.5 g/Seed 1 kg (50 g/ha), nine days after seeding) was 100%, the “Emergence Rate (%)” value ([6]; Seed Treatment 5 g/Seed 1 kg (500 g/ha), nine days after seeding) was 83.3% and the “Degree of Disease Occurrence” value [2, 9] was 2.1. For the same molecule, the “disease occurrence of septoria leaf blotch, seed treatment compared with foliage spraying of chlorothalonil” value ([2]; seed treatment) was “more suppressed”, the “Degree of Disease Occurrence” value [7, 9] was 7.6 and the “Degree of Disease Occurrence” value [7, 10] was 7.1. The “disease occurrence under artificial inoculation of powdery mildew” value ([7]; seed treatment) was “the disease occurrence was suppressed”.
`CCCC1COC(Cn2cncn2)(c2ccc(Cl)cc2Cl)O1` (stereo not shown) [Propiconazole, propiconazole, reference compound] was tested, and the “Culm Length (cm)” value ([8]; harvested 106 days after seeding) was 82.5 cm, the “Seed Yield” value ([8]; wheat in 3 m2, 106 days after seeding) was 990 g and the “Degree of Disease Occurrence” value ([1]; spray 125 g/ha three times) was 4.4. For the same molecule, the “Disease Leaf Rate (%)” value ([1]; spray 125 g/ha three times) was 32.2%.
For `Cc1ccc(NC(=O)c2snnc2C)cc1Cl` [Tiadinil, tiadinil, reference compound], the “Degree of Disease Occurrence” value [4] was 11.0 and the “Disease Leaf Rate (%)” value [4] was 33.3%.
